The results in this text go back to patent US9115092B2, “Substituted quinazoline and pyrido-pyrimidine derivatives” (Asana Biosciences, LLC, priority 2010, dated 2015).

For test [1], the target named is T1, mTOR kinase (Homo sapiens, UniProt P42345).
T1 construct: purchased Millipore, USA
In words: mTOR kinase TR-FRET assay. The format is biochemical. The following applies: read-out: mTO R. The gist of the method:
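Compounds preincubated 60 min with mTOR (5 ng) in HEPES pH 7.5, EGTA, MnCl2; ULight-p70 S6K Thr389 peptide (50 nM) and ATP (20 μM) then added, 60 min at room temperature. EDTA-stopped, Eu-anti-phospho antibody detection by TR-FRET (665/615 nm); IC50 from variable-slope sigmoidal fit.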

Test [2] concerns PC3 cells. In words: XTT assay for cell viability, PC3 cells. The format is cell-based, human. Conditions: Homo sapiens, PC-3, cell viability. Here is the method: Using a commercial kit from Sigma Aldrich (Catalog #X34251) and following its protocol, PC3 cells in the log phase of growth were employed and seeded at an optimal density of 1000 cell/well on to 96 well plates and incubated for 24 h followed by the addition of compounds of formula (I) in serial dilutions. Compound dilutions were made in DMSO. The cells were incubated with the compounds of formula (I) for 96 h and XTT tetrazolium dye (Sigma, USA) was subsequently added and incubated at 37° C. After the color formation, absorbance was measured at 465 nm in a Spectramax® Gemini spectrophotometer. EC50 values were calculated using a sigmoidal dose response curve fit in GraphPad Prism® v5 software. The tested compounds of formula (I) which caused inhibition of PC3 cell proliferation as determined by this assay protocol are shown in Table 2.

In test [3] the target is T2, PI3Kα (wild-type), P110/P85α (Homo sapiens, UniProt P42336).
T2 construct: made in house; host or cells: SF9 insect cells
Nature of the test: PI3 Kinase TR-FRET assay, PI3Kα (wild-type). Type of test: biochemical. Summed up: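 Sf9-expressed His-purified P110/P85α (5 ng) preincubated 60 min RT with compound and PIP2 in buffer with 40 mM MgCl2, 5 mM DTT; reaction started with ATP (PIP2 and ATP both 10 μM), 30 min RT. PIP3 detected by TR-FRET displacement, 665/615 nm ratio; IC50 from dose-response curves.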
(In TR-FRET formats the signal depends on donor and acceptor labels being close together.)

Structures are written as SMILES.

T2 sequence (P42336 whole entry): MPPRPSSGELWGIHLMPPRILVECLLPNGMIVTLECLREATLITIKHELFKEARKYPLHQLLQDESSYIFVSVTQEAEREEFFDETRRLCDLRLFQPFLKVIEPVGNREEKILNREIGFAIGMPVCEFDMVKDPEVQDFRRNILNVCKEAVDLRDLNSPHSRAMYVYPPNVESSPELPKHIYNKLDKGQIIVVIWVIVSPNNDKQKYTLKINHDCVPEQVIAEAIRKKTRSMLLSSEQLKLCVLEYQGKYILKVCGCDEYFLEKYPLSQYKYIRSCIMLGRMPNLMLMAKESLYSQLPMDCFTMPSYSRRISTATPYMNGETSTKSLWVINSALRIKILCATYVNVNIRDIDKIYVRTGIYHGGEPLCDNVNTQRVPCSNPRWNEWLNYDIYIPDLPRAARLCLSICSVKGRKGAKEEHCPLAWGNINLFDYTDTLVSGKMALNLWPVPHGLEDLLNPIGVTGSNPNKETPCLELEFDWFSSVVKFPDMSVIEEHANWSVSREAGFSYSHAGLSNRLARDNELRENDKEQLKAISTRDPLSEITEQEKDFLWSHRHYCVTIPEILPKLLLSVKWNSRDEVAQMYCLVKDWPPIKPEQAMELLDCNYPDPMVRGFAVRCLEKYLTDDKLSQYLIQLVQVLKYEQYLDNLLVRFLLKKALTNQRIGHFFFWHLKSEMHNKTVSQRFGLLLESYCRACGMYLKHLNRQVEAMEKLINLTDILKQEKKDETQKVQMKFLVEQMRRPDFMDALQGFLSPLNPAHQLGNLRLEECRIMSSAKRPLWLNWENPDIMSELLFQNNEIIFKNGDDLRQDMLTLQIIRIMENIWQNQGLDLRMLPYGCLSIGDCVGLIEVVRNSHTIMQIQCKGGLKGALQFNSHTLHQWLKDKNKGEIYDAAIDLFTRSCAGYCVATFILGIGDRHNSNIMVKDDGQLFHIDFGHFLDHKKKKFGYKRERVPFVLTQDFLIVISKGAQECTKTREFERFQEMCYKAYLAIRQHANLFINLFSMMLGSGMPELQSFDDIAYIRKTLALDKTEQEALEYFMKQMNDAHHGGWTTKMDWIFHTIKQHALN
T2 sequence (P27986 whole entry partner): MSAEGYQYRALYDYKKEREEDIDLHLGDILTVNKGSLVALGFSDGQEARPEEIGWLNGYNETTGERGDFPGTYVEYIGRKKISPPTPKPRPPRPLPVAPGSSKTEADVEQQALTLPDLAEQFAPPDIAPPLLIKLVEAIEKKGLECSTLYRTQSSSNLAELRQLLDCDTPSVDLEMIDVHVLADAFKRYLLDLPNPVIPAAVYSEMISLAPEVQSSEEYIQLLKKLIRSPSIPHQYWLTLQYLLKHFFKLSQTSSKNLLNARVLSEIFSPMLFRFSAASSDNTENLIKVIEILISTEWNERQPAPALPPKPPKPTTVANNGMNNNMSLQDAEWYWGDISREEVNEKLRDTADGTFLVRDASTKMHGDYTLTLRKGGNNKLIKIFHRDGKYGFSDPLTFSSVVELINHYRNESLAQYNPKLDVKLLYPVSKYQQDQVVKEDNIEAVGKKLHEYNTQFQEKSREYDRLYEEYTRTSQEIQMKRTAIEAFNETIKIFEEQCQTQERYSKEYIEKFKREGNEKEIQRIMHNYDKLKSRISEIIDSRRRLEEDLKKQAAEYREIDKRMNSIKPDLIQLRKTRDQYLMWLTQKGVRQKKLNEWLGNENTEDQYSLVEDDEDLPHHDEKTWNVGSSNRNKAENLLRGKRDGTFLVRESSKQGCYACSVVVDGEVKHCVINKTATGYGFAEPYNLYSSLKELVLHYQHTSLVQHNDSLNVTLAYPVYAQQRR

`CN(C)C(=O)c1ccc(NC(=O)Nc2ccc(-c3nc(N4CCOCC4)c4ccc(-c5cccs5)cc4n3)cc2)cc1` [Example 74, N,N-dimethyl-4-{3-[4-(4-morpholin-4-yl-7-thiophen-2-yl-quinazolin-2-yl)-phenyl]-ureido}-benzamide]: the IC50 in test [1] is 0.05 to 0.2 µM; in test [2], 0.501 to 5 µM; in test [3] it was less than 0.05 µM.

`CN1CCN(C(=O)c2ccc(NC(=O)Nc3ccc(-c4nc(N5CCOCC5)c5ncc(-c6cnn(C)c6)cc5n4)cc3)cc2)CC1` [Example 73, 1-[4-(4-methyl-piperazine-1-carbonyl)-phenyl]-3-{4-[7-(1-methyl-1H-pyrazol-4-yl)-4-morpholin-4-yl-pyrido[3,2-d]pyrimidin-2-yl]-phenyl}-urea]: the figures for the IC50 in test [1], in test [2] and in test [3] were less than 0.05 µM, 0.501 to 5 µM and less than 0.05 µM, respectively.

As for `CN1CCN(C(=O)c2ccc(NC(=O)Nc3ccc(-c4nc(N5CCOCC5)c5ccc(-c6cnn(C)c6)cc5n4)cc3)cc2)CC1` [Example 27, 1-[4-(4-methyl-piperazine-1-carbonyl)-phenyl]-3-{4-[7-(1-methyl-1H-pyrazol-4-yl)-4-morpholin-4-yl-quinazolin-2-yl]-phenyl}-urea], the IC50 in test [1] was less than 0.05 µM; in test [2], less than 0.1 µM; in test [3], 0.05 to 0.2 µM.

For the compound `CS(=O)(=O)c1cccc(-c2ccc3c(N4CCOCC4)nc(-c4ccc(NC(=O)Nc5ccc(C(N)=O)cc5)cc4)nc3c2)c1` [Example 25, 4-(3-{4-[7-(3-methanesulfonyl-phenyl)-4-morpholin-4-yl-quinazolin-2-yl]-phenyl}-ureido)-benzamide], the values for the IC50 in test [1], in test [2] and in test [3] were 0.05 to 0.2 µM, 0.501 to 5 µM and 0.05 to 0.2 µM, respectively.

In the case of `CN(C)C(=O)c1ccc(NC(=O)Nc2ccc(-c3nc(N4CCOCC4)c4ccc(-c5ccco5)cc4n3)c(F)c2F)cc1` [Example 282, -(3-(2,3-difluoro-4-(7-(furan-2-yl)-4-morpholino-quinazolin-2-yl)phenyl)ureido)-N,N-dimethyl-benzamide], the IC50 in test [1] is 0.201 to 10 µM; in test [2], less than 0.1 µM; in test [3] it was 0.05 to 0.2 µM.

For `CN(C)C(=O)c1ccc(NC(=O)Nc2ccc(-c3nc(N4CCOCC4)c4ncc(-c5cnn(C)c5)cc4n3)c(F)c2F)cc1` [Example 14, 4-(3-(2,3-difluoro-4-(7-(1-methyl-1H-pyrazol-4-yl)-4-morpholino-pyrido[3,2-d]pyrimidin-2-yl)phenyl)ureido)-N,N-dimethyl-benzamide], the IC50 in test [1] and in test [3] was less than 0.05 µM each time.

Take `COc1ccc(-c2ccc3c(N4CCOCC4)nc(-c4ccc(NC(=O)Nc5ccc(C(=O)N(C)C)cc5)cc4F)nc3c2)cn1` [Example 258, 4-(3-(3-fluoro-4-(7-(6-methoxypyridin-3-yl)-4-morpholino-quinazolin-2-yl)phenyl)ureido)-N,N-dimethyl-benzamide]: the IC50 in test [1] and in test [3] was 0.05 to 0.2 µM throughout.

For `CN(C)[C@@H]1CCN(C(=O)c2ccc(NC(=O)Nc3ccc(-c4nc(N5CCOCC5)c5ccc(C(C)(C)O)cc5n4)cc3)cc2)C1` [Example 288, (R)-1-(4-(3-(dimethylamino)pyrrolidine-1-carbonyl)phenyl)-3-(4-(7-(2-hydroxypropan-2-yl)-4-morpholino-quinazolin-2-yl)phenyl)urea], the values for the IC50 in test [1] and in test [3] were less than 0.05 µM and 0.05 to 0.2 µM, respectively.

Turning to `CC1CN(c2nc(-c3ccc(NC(=O)Nc4ccc(C(=O)N(C)C)cc4)c(F)c3)nc3cc(-c4cnn(C)c4)cnc23)CC(C)O1` (centres unmarked) [Example 126, 4-(3-(4-(4-(2,6-dimethylmorpholino)-7-(1-methyl-1H-pyrazol-4-yl)pyrido[3,2-d]pyrimidin-2-yl)-2-fluorophenyl)ureido)-N,N-dimethyl-benzamide], the IC50 in test [1] and in test [3] was 0.201 to 10 µM each time.
